Active and inactive are the calls of the source. The calls are words filed in the database; no cut-off is given here.
Key:
Hep 3B2 = assay: Cytotoxicity against human Hep3B cells assessed as reduction in cell viability by MTT assay; assay type: functional, cell-based
A-375 [1] = assay: Induction of cell cycle arrest in human A-375 cells assessed as accumulation at G0/G1 phase at 7 uM incubated for 24 hrs by PI staining based flow cytometry analysis (reference value: 69.68 %); assay type: functional
B16 [2] = assay: Induction of cell cycle arrest in mouse B16 cells assessed as accumulation at S phase incubated for 24 hrs by PI staining based flow cytometry analysis (reference value: 42.53 %); assay type: functional
A-375 [3] = assay: Induction of cell cycle arrest in human A-375 cells assessed as accumulation at G2/M phase incubated for 24 hrs by PI staining based flow cytometry analysis (reference value: 8.87 %); assay type: functional
B16 [4] = assay: Induction of apoptosis in mouse B16 cells assessed as early apoptotic cells preincubated for 2 hrs with […] followed by compound addition and measured after 24 hrs by Annexin-V-FITC/PI-staining based flow cytometry (reference value: 0.9 %); assay type: functional
A-375 [5] = assay: Induction of apoptosis in human A-375 cells assessed as late apoptotic cells preincubated for 2 hrs with 3-MA followed by compound addition and measured after 24 hrs by Annexin-V-FITC/PI-staining based flow cytometry (reference value: 5.7 %); assay type: functional
A-375 [6] = assay: Induction of cell cycle arrest in human A-375 cells assessed as accumulation at S phase at 7 uM incubated for 24 hrs by PI staining based flow cytometry analysis (reference value: 28.83 %); assay type: functional
A-375 [7] = assay: Inhibition of colony formation in human A-375 cells assessed as reduction in number of colonies at 6 to 8 uM incubated for 24 hrs followed by replacement with fresh medium and measured after 14 days by crystal violet staining based analysis; assay type: functional, cell-based; settings: dose 6-8 µM
[8] = target: Tyrosine-protein kinase JAK2 (Homo sapiens) (UniProt O60674); assay: Inhibition of JAK2 phosphorylation in human A-375 cells assessed as decrease in phosphorylated JAK2 level at 6 to 8 uM measured after 12 to 24 hrs by Western blot analysis; assay type: cell-based; settings: dose 6-8 µM, time 12-24 hrs
A-375 [9] = assay: Induction of apoptosis in human A-375 cells assessed as late apoptotic cells preincubated for 2 hrs with […] followed by compound addition and measured after 24 hrs by Annexin-V-FITC/PI-staining based flow cytometry (reference value: 5.7 %); assay type: functional
A-375 [10] = assay: Induction of cell cycle arrest in human A-375 cells assessed as accumulation at G2/M phase at 8 uM incubated for 24 hrs by PI staining based flow cytometry analysis (reference value: 1.48 %); assay type: functional
B16 [11] = assay: Induction of apoptosis in mouse B16 cells assessed as late apoptotic cells preincubated for 2 hrs with […] followed by compound addition and measured after 24 hrs by Annexin-V-FITC/PI-staining based flow cytometry (reference value: 5.7 %); assay type: functional
A-375 [12] = assay: Induction of autophagy in human A-375 cells assessed as increase in LC3-II expression at 7 uM incubated for 6 to 24 hrs by […]; assay type: functional, cell-based; settings: time 6-24 hrs
B16 [13] = assay: Induction of cell cycle arrest in mouse B16 cells assessed as accumulation at S phase incubated for 24 hrs in presence of AG490 by PI staining based flow cytometry analysis (reference value: 42.53 %); assay type: functional
B16 [14] = assay: Cytotoxicity against mouse B16 cells assessed as decrease in number of adherent cells at 5 to 7 uM incubated for 24 hrs by phase contrast microscope analysis; assay type: functional, cell-based; settings: dose 5-7 µM
A-375 [15] = assay: Inhibition of autophagy in human A-375 cells harbouring mCherry-EGFP-LC3 assessed as increase in number of autophagosomes at 7 uM incubated for 8 to 24 hrs by laser scanning confocal microscopic analysis; assay type: functional, cell-based; settings: time 8-24 hrs, TDE = time-dependent effect
A-375 [16] = assay: Induction of cell cycle arrest in human A-375 cells assessed as accumulation at G2/M phase at 6 uM incubated for 24 hrs by PI staining based flow cytometry analysis (reference value: 1.48 %); assay type: functional
B16 [17] = assay: Induction of apoptosis in mouse B16 cells assessed as early apoptotic cells measured after 24 hrs by Annexin-V-FITC/PI-staining based flow cytometry (reference value: 0.9 %); assay type: functional
A-375 [18] = assay: Induction of apoptosis in human A-375 cells assessed as early apoptotic cells after 24 hrs by Annexin-V-FITC/PI-staining based flow cytometry (reference value: 3.1 %); assay type: functional
A-375 [19] = assay: Induction of cell cycle arrest in human A-375 cells assessed as accumulation at S phase at 6 uM incubated for 24 hrs by PI staining based flow cytometry analysis (reference value: 28.83 %); assay type: functional
A-375 [20] = assay: Induction of autophagy in human A-375 cells assessed as decrease in phosphorylated p70S6K level at 7 uM incubated for 6 to 24 hrs by Western blotting analysis; assay type: functional, cell-based; settings: time 6-24 hrs
A-375 [21] = assay: Downregulation of CDK4 protein expression in human A-375 cells at 6 to 8 uM measured after 12 to 24 hrs by western blot assay; assay type: functional, cell-based; settings: dose 6-8 µM, time 12-24 hrs
B16 [22] = assay: Induction of apoptosis in mouse B16 cells assessed as late apoptotic cells at 6 uM measured after 24 hrs by Annexin-V-FITC/PI-staining based flow cytometry (reference value: 4.4 %); assay type: functional
A-375 [23] = assay: Induction of apoptosis in human A-375 cells assessed as early apoptotic cells preincubated for 2 hrs with […] followed by compound addition and measured after 24 hrs by Annexin-V-FITC/PI-staining based flow cytometry (reference value: 3.1 %); assay type: functional
A-375 [24] = assay: Cytotoxicity against human A-375 cells assessed as reduction in cell viability measured after 24 hrs by MTT assay; assay type: functional, cell-based; settings: A-375, 24 h
B16 [25] = assay: Cytotoxicity against mouse B16 cells assessed as change in cell morphology with loss of intercellular contacts at 5 to 7 uM incubated for 24 hrs by phase contrast microscope analysis; assay type: functional, cell-based; settings: dose 5-7 µM
A-375 [26] = assay: Induction of apoptosis in human A-375 cells assessed as late apoptotic cells after 24 hrs by Annexin-V-FITC/PI-staining based flow cytometry (reference value: 5.7 %); assay type: functional
A-375 [27] = assay: Induction of apoptosis in human A-375 cells assessed as chromatin condensation at 6 to 8 uM incubated for 24 hrs by Hoechst 33258 staining based fluorescence microscopy; assay type: functional, cell-based; settings: dose 6-8 µM
A-375 [28] = assay: Induction of apoptosis in human A-375 cells assessed as late apoptotic cells at 8 uM after 24 hrs by Annexin-V-FITC/PI-staining based flow cytometry (reference value: 5.7 %); assay type: functional
B16 [29] = assay: Induction of cell cycle arrest in mouse B16 cells assessed as accumulation at G2/M phase at 6 uM incubated for 24 hrs by PI staining based flow cytometry analysis (reference value: 4.70 %); assay type: functional
A-375 [30] = assay: Induction of apoptosis in human A-375 cells assessed as early apoptotic cells preincubated for 2 hrs with 3-MA followed by compound addition and measured after 24 hrs by Annexin-V-FITC/PI-staining based flow cytometry (reference value: 3.1 %); assay type: functional
A-375 [31] = assay: Induction of apoptosis in human A-375 cells assessed as early apoptotic cells at 8 uM after 24 hrs by Annexin-V-FITC/PI-staining based flow cytometry (reference value: 1.4 %); assay type: functional
B16 [32] = assay: Inhibition of colony formation in mouse B16 cells assessed as reduction in number of colonies at 5 to 7 uM incubated for 24 hrs followed by replacement with fresh medium and measured after 14 days by crystal violet staining based analysis; assay type: functional, cell-based; settings: dose 5-7 µM

Tyrosine-protein kinase JAK2 (Homo sapiens), sequence (O60674 whole entry): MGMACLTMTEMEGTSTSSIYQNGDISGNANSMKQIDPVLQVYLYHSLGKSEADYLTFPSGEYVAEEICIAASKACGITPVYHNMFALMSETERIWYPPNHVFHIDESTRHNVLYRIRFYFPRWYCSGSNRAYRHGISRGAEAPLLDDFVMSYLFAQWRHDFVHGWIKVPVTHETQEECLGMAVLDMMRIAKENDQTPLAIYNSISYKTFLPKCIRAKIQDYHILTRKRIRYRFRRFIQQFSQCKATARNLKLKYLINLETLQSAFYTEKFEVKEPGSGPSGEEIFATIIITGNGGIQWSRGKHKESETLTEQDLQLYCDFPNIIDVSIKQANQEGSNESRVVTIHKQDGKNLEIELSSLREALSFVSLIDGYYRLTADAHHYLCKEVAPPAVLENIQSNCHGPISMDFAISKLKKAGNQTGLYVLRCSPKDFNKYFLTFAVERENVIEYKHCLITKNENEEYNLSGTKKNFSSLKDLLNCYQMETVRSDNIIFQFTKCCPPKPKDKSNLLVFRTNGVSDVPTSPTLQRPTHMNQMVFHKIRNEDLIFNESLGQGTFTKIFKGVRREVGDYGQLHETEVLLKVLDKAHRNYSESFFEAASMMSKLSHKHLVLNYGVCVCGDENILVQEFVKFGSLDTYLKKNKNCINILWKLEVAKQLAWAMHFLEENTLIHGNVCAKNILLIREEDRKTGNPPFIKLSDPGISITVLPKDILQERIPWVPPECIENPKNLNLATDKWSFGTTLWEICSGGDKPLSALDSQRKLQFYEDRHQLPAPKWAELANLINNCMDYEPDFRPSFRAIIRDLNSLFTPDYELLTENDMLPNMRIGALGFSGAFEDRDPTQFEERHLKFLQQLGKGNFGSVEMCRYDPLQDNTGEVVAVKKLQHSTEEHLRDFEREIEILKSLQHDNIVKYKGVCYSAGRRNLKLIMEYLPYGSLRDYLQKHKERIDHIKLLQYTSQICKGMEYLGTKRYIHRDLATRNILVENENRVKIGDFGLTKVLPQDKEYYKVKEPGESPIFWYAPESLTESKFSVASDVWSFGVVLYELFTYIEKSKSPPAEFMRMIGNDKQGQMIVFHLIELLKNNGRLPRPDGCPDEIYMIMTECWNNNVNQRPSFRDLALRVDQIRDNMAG

`COc1ccc2cc1Oc1ccc(cc1)C[C@H]1c3cc(c(OC)cc3CCN1C)Oc1c(OC)c(OC)c(OC)c3c1[C@H](C2)N(C)CC3` [HERNANDEZINE] was tested, and the IC50 (Hep 3B2) was 6.71 µM, the Activity (A-375 [1]) was 76.87% and the Activity (B16 [2]) was 12.63%. It also gave an Activity (A-375 [3]) of 9.5%, an Activity (B16 [4]) of 14.4% and an Activity (A-375 [5]) of 27.1%. For the same compound, the Activity (A-375 [6]) was 22.36%, the inhibition (A-375 [7]) was “Active” and the inhibition [8] was “Active”. The Activity (A-375 [9]) was 23.9%, the Activity (A-375 [10]) was 1.24% and the Activity (B16 [11]) was 16%. For the same compound, the Activity (A-375 [12]) was “Active”, the Activity (B16 [13]) was 6.92% and the Activity (B16 [14]) was “Active”. For the same compound, the inhibition (A-375 [15]) was “Tde”, the Activity (A-375 [16]) was 1.43% and the Activity (B16 [17]) was 25.6%. The Activity (A-375 [18]) was 19.6%, the Activity (A-375 [19]) was 22.28% and the Activity (A-375 [20]) was “Active”. The Activity (A-375 [21]) was “Active”, the Activity (B16 [22]) was 19.2% and the Activity (A-375 [23]) was 34.8%. For the same compound, the IC50 (A-375 [24]) was 7.2 µM, the Activity (B16 [25]) was “Active” and the Activity (A-375 [26]) was 48.1%. The Activity (A-375 [27]) was “Active”, the Activity (A-375 [28]) was 53.4% and the Activity (B16 [29]) was 3.27%. The Activity (A-375 [30]) was 10.1%, the Activity (A-375 [31]) was 18.2% and the inhibition (B16 [32]) was “Active”.
